Reference: US20120264735A1 (priority 2009, published 2012)

What follows are compounds tested against T1, c-Met kinase (recombinant c-Met) (Homo sapiens, UniProt P08581) (assay: In vitro kinase assay I (homogeneous time-resolved fluorescence tyrosine kinase assay)).
T1 construct: 0.27 nM recombinant c-Met
Type: biochemical
Method in brief: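 Biotinylated peptide (0.5 μM) phosphorylated by 0.2 nM recombinant c-Met with 50 μM MgATP, 60 min at room temperature, pH 7.4, 5% DMSO. EDTA stop; HTRF read with Eu-anti-phosphotyrosine antibody and streptavidin-APC. IC50 from 4-parameter logistic fit.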

T1 sequence (P08581 25-1390): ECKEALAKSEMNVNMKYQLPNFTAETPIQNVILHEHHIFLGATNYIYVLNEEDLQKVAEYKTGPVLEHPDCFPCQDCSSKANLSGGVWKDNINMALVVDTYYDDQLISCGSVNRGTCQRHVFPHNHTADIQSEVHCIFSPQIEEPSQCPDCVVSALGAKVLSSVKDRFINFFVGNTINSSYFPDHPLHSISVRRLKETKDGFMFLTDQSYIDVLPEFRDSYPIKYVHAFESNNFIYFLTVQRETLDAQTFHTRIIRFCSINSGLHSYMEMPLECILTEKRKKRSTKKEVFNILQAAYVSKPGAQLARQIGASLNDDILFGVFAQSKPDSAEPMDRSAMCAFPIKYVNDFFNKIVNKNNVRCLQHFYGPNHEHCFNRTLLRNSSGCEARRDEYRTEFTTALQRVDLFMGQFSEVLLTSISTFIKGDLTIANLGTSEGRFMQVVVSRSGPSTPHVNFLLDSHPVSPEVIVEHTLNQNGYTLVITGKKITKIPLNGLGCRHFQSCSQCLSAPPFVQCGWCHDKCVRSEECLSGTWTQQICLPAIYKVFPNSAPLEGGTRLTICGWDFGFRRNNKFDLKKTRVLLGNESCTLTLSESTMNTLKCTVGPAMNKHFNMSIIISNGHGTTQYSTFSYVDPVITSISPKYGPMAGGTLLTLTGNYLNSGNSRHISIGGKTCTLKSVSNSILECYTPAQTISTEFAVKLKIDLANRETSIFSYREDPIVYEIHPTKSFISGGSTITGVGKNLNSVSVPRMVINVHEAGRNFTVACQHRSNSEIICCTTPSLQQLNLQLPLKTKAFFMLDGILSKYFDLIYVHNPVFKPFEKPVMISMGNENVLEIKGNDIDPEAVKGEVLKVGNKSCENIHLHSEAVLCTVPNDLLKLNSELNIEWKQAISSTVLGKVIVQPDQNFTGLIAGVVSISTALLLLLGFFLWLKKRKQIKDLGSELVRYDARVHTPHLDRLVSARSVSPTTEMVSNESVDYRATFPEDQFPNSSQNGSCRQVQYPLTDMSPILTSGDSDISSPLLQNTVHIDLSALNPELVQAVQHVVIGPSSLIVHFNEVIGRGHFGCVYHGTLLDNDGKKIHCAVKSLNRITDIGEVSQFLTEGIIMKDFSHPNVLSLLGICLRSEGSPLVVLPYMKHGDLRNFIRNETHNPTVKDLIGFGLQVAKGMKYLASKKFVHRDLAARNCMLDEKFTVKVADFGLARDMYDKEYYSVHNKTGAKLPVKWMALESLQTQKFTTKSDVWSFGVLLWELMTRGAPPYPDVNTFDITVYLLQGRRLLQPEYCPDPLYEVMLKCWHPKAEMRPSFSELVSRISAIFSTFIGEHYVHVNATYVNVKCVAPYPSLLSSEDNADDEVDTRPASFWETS

Row | Compound | IC50
1 | Cn1cc(-n2ccc(=O)c(Cc3cccc(-c4ncc(OCC5COCCO5)cn4)c3)n2)cn1 (single isomer, unassigned) [Example 348, 3-(3-{5-[(2S or R)-1,4-dioxan-2-ylmethoxy]pyrimidin-2-yl}benzyl)-1-(1-methyl-1H-pyrazol-4-yl)pyridazin-4(1H)-one] | < 100 nM
2 | O=c1ccn(-c2ccc(F)c(F)c2)nc1Cc1cccc(-c2ncc(OC3CCOC3)cn2)c1 (single isomer, unassigned) [Example 349, 1-(3,4-difluorophenyl)-3-(3-{5-[(3R or S)-tetrahydrofuran-3-yloxy]pyrimidin-2-yl}benzyl)pyridazin-4(1H)-one] | < 100 nM
3 | O=c1ccn(-c2ccc(F)c(F)c2)nc1Cc1cccc(-c2ncc(OC3CCOC3)cn2)c1 (single isomer, unassigned) [Example 350, 1-(3,4-difluorophenyl)-3-(3-{5-[(3S or R)-tetrahydrofuran-3-yloxy]pyrimidin-2-yl}benzyl)pyridazin-4(1H)-one] | < 100 nM
4 | O=c1ccn(-c2ccc(F)c(F)c2)nc1Cc1cccc(-c2ncc(OCC3CCOC3)cn2)c1 (single isomer, unassigned) [Example 351, 1-(3,4-difluorophenyl)-3-(3-{5-[(3R or S)-tetrahydrofuran-3-ylmethoxy]pyrimidin-2-yl}benzyl)pyridazin-4(1H)-one] | < 100 nM
5 | O=c1ccn(-c2ccc(F)c(F)c2)nc1Cc1cccc(-c2ncc(OCC3CCOC3)cn2)c1 (single isomer, unassigned) [Example 352, 1-(3,4-difluorophenyl)-3-(3-{5-[(3S or R)-tetrahydrofuran-3-ylmethoxy]pyrimidin-2-yl}benzyl)pyridazin-4(1H)-one] | < 100 nM
6 | C[C@@H](O)[C@@H](C)Oc1cnc(-c2cccc(Cc3nn(-c4cnn(C)c4)ccc3=O)c2)nc1 (single isomer, unassigned) [Example 374] | < 100 nM
7 | C[C@H](O)[C@H](C)Oc1cnc(-c2cccc(Cc3nn(-c4cnn(C)c4)ccc3=O)c2)nc1 (single isomer, unassigned) [Example 375] | < 100 nM
8 | C[C@H](O)[C@@H](C)Oc1cnc(-c2cccc(Cc3nn(-c4cnn(C)c4)ccc3=O)c2)nc1 (single isomer, unassigned) [Example 376] | < 100 nM
9 | C[C@H](Oc1cnc(-c2cccc(Cc3nn(-c4cnn(C)c4)ccc3=O)c2)nc1)[C@@H](C)O (single isomer, unassigned) [Example 377] | < 100 nM
10 | Cn1cc(-n2ccc(=O)c(Cc3cccc(-c4ncc(O[C@@H]5CCC[C@H]5O)cn4)c3)n2)cn1 (single isomer, unassigned) [Example 378] | < 100 nM
11 | Cn1cc(-n2ccc(=O)c(Cc3cccc(-c4ncc(O[C@H]5CCC[C@@H]5O)cn4)c3)n2)cn1 (single isomer, unassigned) [Example 379] | < 100 nM
12 | CC(c1cccc(-c2ncc(OCC(C)(C)O)cn2)c1)c1nn(-c2cnn(C)c2)ccc1=O (single isomer, unassigned) [Example 380, 3-((1S or R)-1-{3-[5-(2-hydroxy-2-methylpropoxy)pyrimidin-2-yl]phenyl}ethyl)-1-(1-methyl-1H-pyrazol-4-yl)pyridazin-4(1H)-one] | < 100 nM
13 | CC(c1cccc(-c2ncc(OCC(C)(C)O)cn2)c1)c1nn(-c2cnn(C)c2)ccc1=O (single isomer, unassigned) [Example 381, 3-((1R or S)-1-{3-[5-(2-hydroxy-2-methylpropoxy)pyrimidin-2-yl]phenyl}ethyl)-1-(1-methyl-1H-pyrazol-4-yl)pyridazin-4(1H)-one] | < 100 nM
14 | CC(c1cccc(-c2ncc(OC(C)C(C)(C)O)cn2)c1)c1nn(-c2cnn(C)c2)ccc1=O (single isomer, unassigned) [Example 382, 3-{(1R or S)-1-[3-(5-{[(1R or S)-2-hydroxy-1,2-dimethylpropyl]oxy}pyrimidin-2-yl)phenyl]ethyl}-1-(1-methyl-1H-pyrazol-4-yl)pyridazin-4(1H)-one] | < 100 nM
15 | CC(c1cccc(-c2ncc(OC(C)C(C)(C)O)cn2)c1)c1nn(-c2cnn(C)c2)ccc1=O (single isomer, unassigned) [Example 383, 3-{(1R or S)-1-[3-(5-{[(1R or S)-2-hydroxy-1,2-dimethylpropyl]oxy}pyrimidin-2-yl)phenyl]ethyl}-1-(1-methyl-1H-pyrazol-4-yl)pyridazin-4(1H)-one] | < 100 nM
16 | CC(c1cccc(-c2ncc(OC(C)C(C)(C)O)cn2)c1)c1nn(-c2cnn(C)c2)ccc1=O (single isomer, unassigned) [Example 384, 3-{(1R or S)-1-[3-(5-{[(1R or S)-2-hydroxy-1,2-dimethylpropyl]oxy}pyrimidin-2-yl)phenyl]ethyl}-1-(1-methyl-1H-pyrazol-4-yl)pyridazin-4(1H)-one] | < 100 nM

Row | Compound | IC50
17 | CC(c1cccc(-c2ncc(OC(C)C(C)(C)O)cn2)c1)c1nn(-c2cnn(C)c2)ccc1=O (single isomer, unassigned) [Example 385, 3-{(1R or S)-1-[3-(5-{[(1R or S)-2-hydroxy-1,2-dimethylpropyl]oxy}pyrimidin-2-yl)phenyl]ethyl}-1-(1-methyl-1H-pyrazol-4-yl)pyridazin-4(1H)-one] | < 100 nM
18 | CC(c1cccc(-c2ncc(C3CC3)cn2)c1)c1nn(-c2cnn(C)c2)ccc1=O (single isomer, unassigned) [Example 405, 3-{(1S or R)-1-[3-(5-cyclopropyl-pyrimidin-2-yl)phenyl]ethyl}-1-(1-methyl-1H-pyrazol-4-yl)pyridazin-4(1H)-one] | < 100 nM
19 | CC(c1cccc(-c2ncc(C3CC3)cn2)c1)c1nn(-c2cnn(C)c2)ccc1=O (single isomer, unassigned) [Example 406, 3-{(1R or S)-1-[3-(5-cyclopropyl-pyrimidin-2-yl)phenyl]ethyl}-1-(1-methyl-1H-pyrazol-4-yl)pyridazin-4(1H)-one] | < 100 nM
20 | CC1CCC(=O)N1[C@@H](C)COC(=O)Nc1cccc(Cc2nn(-c3cnn(C)c3)ccc2=O)c1 (single isomer, unassigned) [Example 610, (2S)-2-[(2R or S)-2-methyl-5-oxopyrrolidin-1-yl]propyl (3-{[1-(1-methyl-1H-pyrazol-4-yl)-4-oxo-1,4-dihydropyridazin-3-yl]methyl}phenyl)carbamate] | < 100 nM
21 | COCCOC(=O)Nc1cccc(C(C)c2nn(-c3cnn(C)c3)ccc2=O)c1 (single isomer, unassigned) [Example 652, 2-methoxyethyl (3-{(1S or R)-1-[1-(1-methyl-1H-pyrazol-4-yl)-4-oxo-1,4-dihydropyridazin-3-yl]ethyl}phenyl)carbamate] | < 100 nM
22 | COCCOC(=O)Nc1cccc(C(C)c2nn(-c3cnn(C)c3)ccc2=O)c1 (single isomer, unassigned) [Example 653, 2-methoxyethyl (3-{(1R or S)-1-[1-(1-methyl-1H-pyrazol-4-yl)-4-oxo-1,4-dihydropyridazin-3-yl]ethyl}phenyl)carbamate] | 100 to 1000 nM
23 | CCOc1cnc(-c2cccc(C(F)c3nn(-c4cnn(C)c4)ccc3=O)c2)nc1 (single isomer, unassigned) [Example 655, 3-[(S or R)-[3-(5-ethoxypyrimidin-2-yl)phenyl](fluoro)methyl]-1-(1-methyl-1H-pyrazol-4-yl)pyridazin-4(1H)-one] | 100 to 1000 nM
24 | CCOc1cnc(-c2cccc(C(F)c3nn(-c4cnn(C)c4)ccc3=O)c2)nc1 (single isomer, unassigned) [Example 656, 3-[(R or S)-[3-(5-ethoxypyrimidin-2-yl)phenyl](fluoro)methyl]-1-(1-methyl-1H-pyrazol-4-yl)pyridazin-4(1H)-one] | < 100 nM
25 | CCn1cnc(-c2cccc(C(C)c3nn(-c4cnn(C)c4)ccc3=O)c2)n1 (single isomer, unassigned) [Example 680, 3-{(1S or R)-1-[3-(1-ethyl-1H-1,2,4-triazol-3-yl)phenyl]ethyl}-1-(1-methyl-1H-pyrazol-4-yl)pyridazin-4(1H)-one] | 100 to 1000 nM
26 | CCn1cnc(-c2cccc(C(C)c3nn(-c4cnn(C)c4)ccc3=O)c2)n1 (single isomer, unassigned) [Example 681, 3-{(1R or S)-1-[3-(1-ethyl-1H-1,2,4-triazol-3-yl)phenyl]ethyl}-1-(1-methyl-1H-pyrazol-4-yl)pyridazin-4(1H)-one] | < 100 nM
27 | CC(c1cccc(-c2ncn(C)n2)c1)c1nn(-c2cnn(C)c2)ccc1=O (single isomer, unassigned) [Example 682, 1-(1-methyl-1H-pyrazol-4-yl)-3-{(1S or R)-1-[3-(1-methyl-1H-1,2,4-triazol-3-yl)phenyl]ethyl} pyridazin-4(1H)-one] | 1000 to 3000 nM
28 | CC(c1cccc(-c2ncn(C)n2)c1)c1nn(-c2cnn(C)c2)ccc1=O (single isomer, unassigned) [Example 683, 1-(1-methyl-1H-pyrazol-4-yl)-3-{(1R or S)-1-[3-(1-methyl-1H-1,2,4-triazol-3-yl)phenyl]ethyl} pyridazin-4(1H)-one] | < 100 nM
29 | CCCn1cnc(-c2cccc(C(C)c3nn(-c4cnn(C)c4)ccc3=O)c2)n1 (single isomer, unassigned) [Example 684, 1-(1-methyl-1H-pyrazol-4-yl)-3-{(1S or R)-1-[3-(1-propyl-1H-1,2,4-triazol-3-yl)phenyl]ethyl} pyridazin-4(1H)-one] | 1000 to 3000 nM
30 | CCCn1cnc(-c2cccc(C(C)c3nn(-c4cnn(C)c4)ccc3=O)c2)n1 (single isomer, unassigned) [Example 685, 1-(1-methyl-1H-pyrazol-4-yl)-3-{(1R or S)-1-[3-(1-propyl-1H-1,2,4-triazol-3-yl)phenyl]ethyl} pyridazin-4(1H)-one] | < 100 nM
31 | CCn1cc(-n2ccc(=O)c(C(C)c3cccc(-c4ncn(CC)n4)c3)n2)cn1 (single isomer, unassigned) [Example 686, 1-(1-ethyl-1H-pyrazol-4-yl)-3-{(1S or R)-1-[3-(1-ethyl-1H-1,2,4-triazol-3-yl)phenyl]ethyl} pyridazin-4(1H)-one] | 100 to 1000 nM
